Laboratory results: ChEMBL document CHEMBL1154836, “Synthesis of glycoside derivatives of hydroxyanthraquinone with ability to dissolve and inhibit formation of crystals of calcium oxalate. Potential compounds in kidney stone therapy” (Eur J Med Chem, 2010)

How the values were obtained:
L929 = test: Cytotoxicity against mouse L929 cells at 500 ug/ml; format: cell-based
A549 = test: Cytotoxicity against human A549 cells at 500 ug/ml; format: cell-based
[1] = Induction of calcium oxalate dissolution assessed as increase in calcium concentration after 5 days by flame photometry relative to untreated control; format: physicochemical; settings: 120 h
[2] = Induction of surgically removed human kidney stone dissolution assessed as increase in calcium concentration after 5 days by flame photometry relative to untreated control; format: functional
[3] = Inhibition of calcium oxalate crystal formation assessed as change of shift in titration end point by conductometric titration; format: functional

SMILES	Activity [1]	Activity (L929)	Activity (A549)	Activity [2]	Activity [3]
O=C1c2ccccc2C(=O)c2c1ccc(O)c2O [ATHRAQUINONES A]	246%	Toxic	Toxic	717%	40 µL
O=C1c2ccccc2C(=O)c2c(O)ccc(O)c21 [QUINIZARIN]	205%	Toxic	Toxic	833%	30 µL
O=C1c2ccc(O)c(O)c2C(=O)c2c(O)ccc(O)c21 [QUINALIZARIN]	1324%	–	–	4167%	90 µL
O=C1c2ccccc2C(=O)c2c1ccc(O[C@@H]1O[C@H](CO)[C@H](O)[C@H](O)[C@H]1O)c2O	432%	Non-toxic	Non-toxic	1500%	70 µL
O=C1c2ccc(O[C@@H]3O[C@H](CO)[C@@H](O)[C@H](O)[C@H]3O)c(O)c2C(=O)c2c(O)ccc(O)c21	1513%	–	–	4833%	180 µL

Second part, led by results:

Activity [1]	SMILES	Activity (L929)	Activity (A549)	Activity [2]	Activity [3]
513%	O=C1c2ccc(O[C@@H]3O[C@H](CO)[C@H](O)[C@H](O)[C@H]3O)c(O)c2C(=O)c2c(O)ccc(O)c21	–	–	1667%	170 µL
595%	O=C1c2ccccc2C(=O)c2c1ccc(O[C@@H]1O[C@H](CO)[C@@H](O)[C@H](O)[C@H]1O)c2O	Non-toxic	Non-toxic	1583%	80 µL
541%	O=C1c2ccccc2C(=O)c2c(O[C@@H]3O[C@H](CO)[C@@H](O)[C@H](O)[C@H]3O)ccc(O)c21	Non-toxic	Non-toxic	2000%	60 µL
